Measured values taken from patent US20200377958A1, “BIOMARKERS AND METHODS FOR TREATMENT WITH NAE INHIBITORS” (Millennium Pharmaceuticals, Inc., priority 2017, published 2020).
Like-named read-outs stand apart in the source and are kept apart here.

Key:
[1] = test system: patients with AML; details: patients with AML on the Austrian AZA registry; cited from earlier work
[2] = test system: older unfit patients with increased marrow blasts (>30%); details: cited from earlier work
[3] = Phase 1b clinical study (NCT01814826): plasma PK of PEV in combination with AZA; format: in vivo, human; details: for Cmax / half-life / Tmax: human; for Cmax / half-life / Tmax / AUC24 / AUC48: plasma; for Cmax / AUC24 / AUC48: geometric mean; for half-life: mean; for Tmax: median
Experimental: Serial blood samples for the determination of PEV concentrations were obtained during the first cycle of treatment, at pre-specified time points before and up to 48 hours after the start of the infusion on days 1 and 5.

[4] = single-agent PEV, cited from earlier work
[5] = test system: patients with relapsed/refractory AML and MDS; details: single-agent PEV, cited from earlier work
[6] = test system: AML cells; details: cited from earlier work; for combination effect on viability: Combination Index and Blending Synergy Analysis
[7] = AZA-AML-001, randomized AZA or CCR
[8] = intravenous, dose escalation, 20 mg/m^2 cohort (N = 6), cycle 1, day 1
[9] = intravenous, dose escalation, 20 mg/m^2 cohort (N = 6), cycle 1, day 5
[10] = intravenous, dose escalation, 30 mg/m^2 cohort (N = 3), cycle 1, day 1
[11] = iv, MTD expansion, IV AZA cohort (N = 26), cycle 1, day 1
[12] = iv, MTD expansion, IV AZA cohort (N = 26), cycle 1, day 5
[13] = sc, MTD expansion, SC AZA cohort (N = 28), cycle 1, day 1
[14] = sc, MTD expansion, SC AZA cohort (N = 28), cycle 1, day 5
[15] = dose escalation, 20 mg/m^2 cohort (N = 6), cycle 1, day 1
[16] = dose escalation, 20 mg/m^2 cohort (N = 6), cycle 1, day 5
[17] = dose escalation, 30 mg/m^2 cohort (N = 3), cycle 1, day 1

SMILES: Nc1ncn([C@@H]2O[C@H](CO)[C@@H](O)[C@H]2O)c(=O)n1 [AZA, azacitidine]
- median OS [1]: ~10 months
- 1-year survival [2, 7]: 46.5%
- median OS [2, 7]: 10.4 months
- response rates [2, 7]: 27.8%
- composite CR/PR rate ([2]; patients randomized to AZA alone, large randomized French study (ref 6)): 29%

SMILES: NS(=O)(=O)OC[C@@H]1C[C@@H](n2ccc3c(N[C@H]4CCc5ccccc54)ncnc32)C[C@@H]1O [PEV, ((1S,2S,4R)-4-{4-[(1S)-2,3-dihydro-1H-inden-1-ylamino]-7H-pyrrolo[2,3-d]pyrimidin-7-yl}-2-hydroxycyclopentyl)methyl sulfamate]
- observed accumulation ratio Rac ([3]; day 5 versus day 1, five days of continuous dosing with AZA): ~1
- Cmax [3, 8]: 158 ng/mL
- half-life [3, 8]: 7.8 h
- Tmax [3, 8]: 1.06 h
- Cmax [3, 9]: 165 ng/mL
- half-life [3, 9]: 7.98 h
- Tmax [3, 9]: 0.99 h
- Cmax [3, 10]: 299 ng/mL
- half-life [3, 10]: 7.39 h
- Tmax [3, 10]: 0.98 h
- Cmax [3, 11]: 155 ng/mL
- half-life [3, 11]: 7.45 h
- Tmax [3, 11]: 1.01 h
- Cmax [3, 12]: 164 ng/mL
- half-life [3, 12]: 8.07 h
- Tmax [3, 12]: 1 h
- Cmax [3, 13]: 152 ng/mL
- half-life [3, 13]: 7.3 h
- Tmax [3, 13]: 1 h
- Cmax [3, 14]: 148 ng/mL
- half-life [3, 14]: 7.89 h
- Tmax [3, 14]: 0.98 h
- AUC24 ([3]; MTD expansion, IV AZA cohort (N = 26), cycle 1, day 1): 861 ng·h/mL
- AUC24 ([3]; MTD expansion, IV AZA cohort (N = 26), cycle 1, day 5): 921 ng·h/mL
- AUC48 ([3]; MTD expansion, IV AZA cohort, N = 12, cycle 1, day 1): 976 ng·h/mL
- AUC48 ([3]; MTD expansion, IV AZA cohort, N = 13, cycle 1, day 5): 1100 ng·h/mL
- AUC24 ([3]; MTD expansion, SC AZA cohort (N = 28), cycle 1, day 1): 890 ng·h/mL
- AUC24 ([3]; MTD expansion, SC AZA cohort (N = 28), cycle 1, day 5): 926 ng·h/mL
- AUC48 ([3]; MTD expansion, SC AZA cohort, N = 11, cycle 1, day 1): 1000 ng·h/mL
- AUC48 ([3]; MTD expansion, SC AZA cohort, N = 18, cycle 1, day 5): 1100 ng·h/mL
- AUC24 [3, 15]: 990 ng·h/mL
- AUC48 [3, 15]: 1110 ng·h/mL
- AUC24 [3, 16]: 986 ng·h/mL
- AUC48 [3, 16]: 1090 ng·h/mL
- AUC24 [3, 17]: 1640 ng·h/mL
- AUC48 [3, 17]: 1770 ng·h/mL
- PEV PK in the presence of AZA compared with historical single-agent data ([3]; systemic exposure): not altered
- DLTs at starting dose (PEV 20 mg/m^2 (n=6) with AZA, dose escalation): absence of DLTs
- final posterior estimate of probability of toxicity (PEV 20 mg/m^2, CRM model): 24%
- DLTs in the MTD expansion cohort (PEV 20 mg/m^2 with AZA (n=55), grade ≥3 transaminase elevation): two additional patients experienced DLTs
- patients who experienced a DLT (PEV 30 mg/m^2 dose level (n=3) with AZA, grade 2 bilirubin elevation, grade 4 AST elevation): two of the three
- MTD for PEV (combined with AZA in standard doses, IV days 1, 3, 5 of 28-day cycles): 20 mg/m^2
- maximum tolerated dose (MTD) ([4]; schedule A: 1-hour IV infusion days 1, 3, 5 every 21 days): 59 mg/m^2
- dose-limiting toxicity ([4]; schedule A): elevation of alanine aminotransferase (ALT)/aspartate aminotransferase (AST)
- maximum tolerated dose (MTD) ([4]; schedule B: days 1, 4, 8, 11 every 21 days): 83 mg/m^2
- dose-limiting toxicity ([4]; schedule B): Multi-organ failure (MOF)
- Overall response rate (ORR) ([5]; schedule A, patients treated at or below the MTD (4/23)): 17%
- Overall response rate (ORR) ([5]; schedule B, patients treated at or below the MTD (2/19)): 10%
- DNA damage and cell death ([6]; PEV combined with AZA compared with either agent alone, immunoblotting and flow cytometry): significantly increased DNA damage and cell death
- combination effect on viability ([6]; PEV with AZA): synergistically lethal
- combination effect on viability ([6]; PEV with decitabine): synergistically lethal
